This is an account of results in the NIST ThermoML archive (doi:10.1016/j.jct.2014.12.017).

± gives the expanded uncertainty stated by the source.

A short description of the series: wn = mass fraction of the nth substance listed. The note with it: 297.15 K; 101 kPa; Liquid; Alternating current cell with electrodes; w1 = 0.1.
As for `CCCCn1cc[n+](C)c1.O=S(=O)([O-])C(F)(F)F` [1-butyl-3-methylimidazolium trifluoromethanesulfonate] + O, the electrical conductivity amounted to 1.38 ± 0.014 S/m.

Take `C[n+]1ccn(CCO)c1.[Cl-]` [1-(2-hydroxyethyl)-3-methyl-1H-imidazolium chloride] + O: the electrical conductivity was found to be 4.19 ± 0.04 S/m.

With `CCCCn1cc[n+](C)c1.[O-][Cl+3]([O-])([O-])[O-]` [1-butyl-3-methylimidazolium perchlorate] + O, the electrical conductivity worked out at 2.18 ± 0.02 S/m.

Consider `CCCCn1cc[n+](C)c1.[Br-]` [1-butyl-3-methylimidazolium bromide] + O, for which the electrical conductivity was 2.87 ± 0.03 S/m.

For `Cn1cc[n+](CCO)c1.[Br-]` [3-(2-hydroxyethyl)-1-methyl-1H-imidazolium bromide] + O, the electrical conductivity stood at 3.58 ± 0.04 S/m.

As to `CCCCn1cc[n+](C)c1.N#CN=C=[N-]` [1-butyl-3-methylimidazolium dicyanamide] + O, the electrical conductivity came out at 1.9 ± 0.019 S/m.

For the compound `CCCCn1cc[n+](C)c1.O=S(=O)([O-])O` [1-butyl-3-methylimidazolium hydrogen sulfate] + O, the electrical conductivity was determined as 7.63 ± 0.08 S/m.

As to `CCCCn1cc[n+](C)c1.[Cl-]` [1-butyl-3-methylimidazolium chloride] + O, the electrical conductivity came out at 3.43 ± 0.03 S/m.

For `CCCCn1cc[n+](C)c1.COS(=O)(=O)[O-]` [1-butyl-3-methylimidazolium methyl sulfate] + O, the electrical conductivity worked out at 1.727 ± 0.017 S/m.
